The test concerns Morphine Induced Loss of Righting Reflex. In words: Antagonism of Morphine Induced Loss of Righting Reflex. As to conditions: Rattus norvegicus, im; rats; morphine base 75 mg/kg subcutaneously; antagonist intramuscularly 40 minutes after the morphine; measured at 20 minute intervals for 2 hours; read-out: ED50 (dose for 50 percent reversal of the loss of righting reflex). The format is in vivo, male Charles River rats. On the procedure:
Groups of three male Charles River rats (160 to 200 g.) were dosed subcutaneously with morphine base at 75 mg/kg. The degree of narcosis was measured at 15 and 30 minutes after injection. Criterion was loss of righting reflex. Antagonists were administered 40 minutes after the morphine. The degree of antagonism was measured at 20 minute intervals for 2 hours. Nalorphine at 2 mg/kg. served as a positive control while one group of morphinized rats in each determination received no antagonist and served as negative controls. Compounds were dissolved in water or suspended in Tween-80 and water and were administered intramuscularly. Each dose of the antagonist was tested in a minimum of three experiments. At least three doses of each antagonist was used to determine the ED50. For each experiment the degree of reversal, by the antagonist, of the loss of righting reflex induced by morphine was calculated in the following manner. The total number of periods of loss of righting reflex in the experimental group was divided by the total number of periods of loss of righting reflex in the control group. This number was converted to percent and subtracted from 100 to give percent reversal of loss of righting reflex. The dose for which a 50 percent reversal of the loss of righting reflex was observed is the ED50.
What is called ED50 is the dose at which the effect has come halfway, by size or by number of responders. Turning to `CN(C)C(c1cccc(O)c1)[C@@H]1CCCC[C@@H]1OCc1ccccc1` (single isomer, unassigned) [(l)-α-dimethylamino-α-(cis-2-benzyloxycyclohexyl)-m-cresol], the ED50 amounted to 0.35 mg/kg.

Turning to `CN(C)C(c1cccc(O)c1)[C@@H]1CCCC[C@@H]1OCc1ccccc1` (stereo partly drawn) [(dl)-α-dimethylamino-α-(cis-2-benzyloxycyclohexyl)-m-cresol], the ED50 amounted to 0.95 mg/kg.

For `CCO[C@@H]1CCCC[C@@H]1C(c1cccc(O)c1)N(C)C` (stereo partly drawn) [(dl)-α-dimethylamino-α-(cis-2-ethoxycyclohexyl)-m-cresol], the ED50 was 2 mg/kg.

As to `C=CCN1CC[C@]23c4c5ccc(O)c4O[C@H]2[C@@H](O)C=C[C@H]3[C@H]1C5` [Nalorphine, reference compound], the ED50 was 1 mg/kg.

Values taken from patent US3937818A, “Benzylamine narcotic antagonists” (American Home Products Corporation, priority 1974, dated 1976).
